Test results published in PMC4318582, “Chemotherapy of Second Stage Human African Trypanosomiasis: Comparison between the Parenteral Diamidine DB829 and Its Oral Prodrug DB868 in Vervet Monkeys” (PLoS Neglected Tropical Diseases, 2015).
Where “and” joins values, the source holds several entries; their conditions need not be identical. Identical values can stand only once. Like-named read-outs stand apart in the source and are kept apart here.

What was measured:
[1] = Plasma pharmacokinetics in infected vervet monkeys (HPLC-MS/MS); format: in vivo, vervet monkey
From the text: Parasitaemia post-infection was monitored daily, using ear-prick capillary blood, through the completion of DB868 and DB829 treatment. Following the last drug dose (LDD), blood and CSF samples were examined for trypanosomes at 1, 4, 7, and 14 days to determine the end of treatment (EoT) response; monkeys which were positive for trypanosomes in either blood or CSF at the end of this 14-day period were classified as treatment failures/not cured while those that were free of trypanosomes were classified as provisionally cured. After the 14-day EoT evaluations, parasitaemia examinations were continued twice weekly to ≥ 300 days post-LDD as described previously. Additionally, physical examinations and haematological assessments were carried out once weekly up to 28 days post-LDD, once every two weeks between 28 and 100 days post-LDD, and monthly thereafter until the end of the study as described previously. At 300 days post-LDD, monkeys were considered cured if they remained normal clinically and parasite-free in the blood and CSF. Pharmacokinetic outcomes were monitored for a minimum of 60 days post-LDD as described previously. To facilitate the collection of blood and CSF for these assessments, the monkeys were anaesthetised with an IM injection of ketamine HCl (10–15 mg/kg) and diazepam (0.5 mg/kg). Monkeys that relapsed, characterized by trypanosome recrudescence in the blood or CSF, were rescue-treated with melarsoprol. Melarsoprol (Mel B), supplied by the World Health Organization as a 3.6% (w/v) solution in propylene glycol, was administered intravenously at 3.6 mg/kg/day for 4 consecutive days.
Plasma samples were processed for quantification of DB868 and DB829 by high performance liquid chromatography-tandem mass spectrometry (HPLC-MS/MS) as described previously. CSF samples were processed in a manner similar to that of plasma samples.
Clinical and haematological data were analysed using Statview for Windows Version 5.0.1 (1995–1998; SAS Institute Inc., Cary, NC, USA). Repeated measures ANOVA, with Fisher’s PLSD post hoc test, was used to test the effect of trypanosome infection on haematologic parameters in comparison with respective baseline values (α = 0.05). In addition, the effects of IM DB829 and oral DB868 on these haematologic parameters in monkeys with confirmed second stage HAT were tested. Pharmacokinetic outcomes were recovered using traditional non-compartmental methods using Phoenix WinNonlin (version 6.2; Pharsight, Mountain View, CA, USA).

[2] = tested on: T. b. rhodesiense KETRI 2537; experiment: Efficacy in KETRI vervet monkey model of second stage HAT; format: in vivo
From the text: The current study used the KETRI vervet monkey model of HAT, a model developed over 30 years ago through the experimental infection of vervet monkeys with T. b. rhodesiense. […] Trypanosomes were identified in peripheral blood first and cerebrospinal fluid (CSF) second, allowing the disease to be classified into an early (haemo-lymphatic) and a late (central nervous system [CNS]) stage, similar to the human disease. […] Monkey trypanosomal infections have been determined to be invariably fatal without therapeutic intervention, a characteristic also widely accepted as true for human sleeping sickness.
Parasitaemia and CSF parasitosis were monitored using established techniques for blood trypanosomes and CSF trypanosomes, respectively.
Due to a regulated freeze on acquisitions of new non-human primates, only six monkeys were available for the IM DB829 study. These animals were divided into three treatment groups, each consisting of one male and one female, to compare dose-responsiveness between consecutive- and alternate-day dosing. Monkeys were treated with 2.5 or 5 mg/kg/day for 5 consecutive days or with 5 mg/kg/day on alternating days for a total of 5 doses (Table 1).
Twelve additional monkeys were available for the oral DB868 efficacy study. These animals were, before infection, divided into three groups, each consisting of two males and two females. DB868 was administered orally to each group at 3, 10 or 20 mg/kg/day for 10 consecutive days (Table 2).
Parasitaemia post-infection was monitored daily, using ear-prick capillary blood, through the completion of DB868 and DB829 treatment. […] At 300 days post-LDD, monkeys were considered cured if they remained normal clinically and parasite-free in the blood and CSF. Pharmacokinetic outcomes were monitored for a minimum of 60 days post-LDD as described previously. […] Monkeys that relapsed, characterized by trypanosome recrudescence in the blood or CSF, were rescue-treated with melarsoprol.

T. b. brucei GVR35 = tested on: T. b. brucei GVR35; set-up: method as in PMID 19620327; conditions: cited from earlier work
[3] = IM 2.5mg/kg × 5 days, monkeys 546M, 693F
[4] = IM 5 mg/kg × 5 alternate days, monkeys 668M, 676F
[5] = IM 5 mg/kg × 5 days, monkeys 569F, 659M

N=C(N)c1ccc(-c2ccc(-c3ccc(C(=N)N)cn3)o2)nc1 [DB829, 2,5-bis(5-amidino-2-pyridyl)furan]
Cmax ([1]; monkey, in vivo, po, 10 mg/kg/day, plasma DB829 after the 10th oral dose of DB868, 10 mg/kg × 10 days, read-out: Cmax): 410 nM | half-life ([1]; monkey, in vivo, po, 10 mg/kg/day, plasma DB829 after the 10th oral dose of DB868, 10 mg/kg × 10 days, read-out: t½ (converted)): 120 days | Cmax ([1]; monkey, in vivo, po, 20 mg/kg/day, after oral DB868 20 mg/kg/day, read-out: Geometric mean Cmax (range) of DB829): 530 nM | Cmax ([1]; monkey, in vivo, po, 20 mg/kg/day, plasma DB829 after the 10th oral dose of DB868, 20 mg/kg × 10 days, read-out: Cmax): 460 nM | Tmax ([1]; monkey, in vivo, po, after oral DB868, three treatment groups, read-out: Median plasma Tmax for DB829 (converted)): 7.92 h | Tmax ([1]; monkey, in vivo, po, after oral DB868, three treatment groups, read-out: range of plasma Tmax for DB829): 0.96 to 48 h | half-life ([1]; monkey, in vivo, po, given IM or orally as DB868, range over monkeys, read-out: half-life for DB829): 33 to 180 days | Cmax ([1]; plasma DB829 after 5th IM dose, Group 1 = 5 mg/kg × 5 consecutive days, 5 mg/kg, read-out: Cmax): 15000 nM | Cmax ([1]; plasma DB829 after 5th IM dose, Group 2 = 5 mg/kg × 5 alternating days, 5 mg/kg, read-out: Cmax): 8900 nM | Cmax ([1]; plasma DB829 after 5th IM dose, Group 3 = 2.5 mg/kg × 5 consecutive days, 2.5 mg/kg, read-out: Cmax): 5900 nM | Tmax ([1]; plasma DB829 after the 10th oral dose of DB868, 3 mg/kg × 10 days): 7.92 h | AUC0–63 ([1]; plasma DB829 after the 10th oral dose of DB868, 3 mg/kg × 10 days, 0 to 63 days): 1800 nmol·days/L | Cmax ([1]; plasma DB829 after the 10th oral dose of DB868, 3 mg/kg × 10 days, read-out: Cmax): 110 nM | Cmax ([1]; plasma DB829 after the 10th oral dose of DB868, 10 mg/kg × 10 days, read-out: Cmax): 340 nM | Cmax ([1]; plasma DB829 after the 10th oral dose of DB868, 20 mg/kg × 10 days, read-out: Cmax): 630 nM and 500 nM | Cured/treated ([2]; IM 2.5mg/kg × 5 days): 2/2 | Final efficacy assessment at 300 days post-LDD of DB829 [2, 3]: Cured | Provisional efficacy at 100 days post-LDD of DB829 [2, 3]: Cured | Trypanosomes at EoT [2, 3]: Neg | Cured/treated ([2]; IM 5 mg/kg × 5 alternate days): 2/2 | Final efficacy assessment at 300 days post-LDD of DB829 [2, 4]: Cured | Provisional efficacy at 100 days post-LDD of DB829 [2, 4]: Cured | Trypanosomes at EoT [2, 4]: Neg | Cured/treated ([2]; IM 5 mg/kg × 5 days): 1/1 | Time to initial clearance of trypanosomes from body fluids (blood and CSF) ([2]; IM 5 mg/kg × 5 days, alternate-day dosing (28, 30, 30, 32, 34 and 36 DPI), monkeys 668M, 676F): 1 days post-LDD | Time to initial clearance of trypanosomes from body fluids (blood and CSF) ([2]; IM 5mg/kg × 5 days, consecutive-day dosing 28–32 DPI, monkeys 569F, 659M): 1 days post-LDD | Final efficacy assessment at 300 days post-LDD of DB829 ([2]; IM 5 mg/kg × 5 days, monkey 569F (659M withdrawn)): Cured | Provisional efficacy at 100 days post-LDD of DB829 [2, 5]: Cured | Trypanosomes at EoT [2, 5]: Neg | Time to initial clearance of trypanosomes from body fluids (blood and CSF) ([2]; IM, monkeys 546M, 693F, Table 3 prints 5mg/kg × 5 days, consecutive-day dosing 28–32 DPI (text: 2.5 mg/kg/day)): 4 days post-LDD and 7 days post-LDD | Final efficacy assessment at 300 days post-LDD of DB829, Overall Results (final combined cure rate) ([2]; all IM DB829 regimens combined): cured all monkeys and 5/5 | Provisional efficacy at 100 days post-LDD of DB829, Overall Results ([2]; all IM DB829 regimens combined): 6/6 | Trypanosomes at EoT, Overall Results (provisional cure rate) ([2]; all IM DB829 regimens combined): 6/6 | efficacy in the murine model of second stage HAT (T. b. brucei GVR35): fully curative
